Data set [1] deals with T1, MtTopo-I (Mycobacterium tuberculosis, UniProt P9WG49).
T1 construct: made in house; host or cells: E. coli
Nature of the data set: DNA relaxation assay of supercoiled pUC18 DNA by MtTopo-I. As to conditions: minimum concentration providing complete inhibition. The format is biochemical.

Data set [2] concerns H37Rv Mtb strain. Description: H37Rv growth inhibition, resazurin reduction microplate assay (REMA). The format is cell-based, Mycobacterium tuberculosis. The settings on record: for Toxicity in H37Rv assay (summary): S6 summary table. In general terms: Alamar Blue is a resazurin reagent that responds to reducing activity.
For data set [3], the target named is T2, human ABCB1 (Homo sapiens, UniProt P08183). Nature of the data set: Cellular transport assay, Calcein-AM uptake in ABCB1-overexpressing PLB cells. On ABC transporter transport assay, ABCB1 (summary): key: 0: no observed effect; +: effect observed in the assay; In the ATPase assay showing only inhibition, the - sign is applied. The format is cell-based. The settings on record: for ABC transporter transport assay, ABCB1 (summary): S6 summary table; for Effect on ABCB1 mediated transport (in words): PLB cells, compound 5 μM. On the procedure:
(§1) For cellular transport assays, mammalian PLB (lymphoblastoid) cell lines, overexpressing ABCB1 or ABCG2 were used. The parental PLB cell line was purchased from ATCC, and ABCB1 or ABCG2 overexpressing cell lines were established by using lentiviral vectors for human ABC transporters as described earlier in [29]. The transport assays were carried out in 96-well plates. 1x10^5 cells were incubated in the presence of 0.1 μM Calcein-AM or 1 μM DCV (Dye Cycler Violet) for the ABCB1 and for the ABCG2 assays, respectively. The assay was performed in HPMI medium (NaCl 120 mM, KCl 5 mM, MgCl2 0.4 mM, CaCl2 0.04 mM, HEPES 10 mM, NaHCO3 10 mM, glucose 10 mM, Na2HPO4 5 mM; pH 7.4). Fluorescence of the cells was detected using a Victor X3 plate reader (for Calcein, exc. at 485 nm, em. at 535 nm) or the Enspire 2300 (Perkin Elmer) plate reader (for DCV, exc. at 360 nm, em. at 440 nm). Kinetics of fluorescence intensity changes were analyzed to determine relative inhibition, compared to that of a reference agent, providing full inhibition of the ABC transporter. Two of the Vichem compounds examined (VCC979812 and VCC38977) were not compatible with the DCV uptake assay because of their intrinsic fluorescence, therefore for these two compounds ABCG2 transport inhibition was characterized by following mitoxantrone uptake. Mitoxantrone uptake was measured by flow cytometry (BD FACSCanto at 633 nm) by 20 minutes incubation in the presence of 7.5 μM mitoxantrone. Each compound was measured in at least three independent experiments with three parallels in each case. DMSO, used as a solvent of compounds had no effect in this assay at the applied concentration.

For data set [4], the system named is HFF cell line. Nature of the data set: Cytotoxicity, PrestoBlue 72 h, HFF. The format is cell-based, human. As to conditions: Non-toxic = not toxic up to 20 μM. On the procedure:
(§2) The toxic effects of the selected MtTopo-I inhibitory Vichem compounds were tested in three cell lines, HFF (human foreskin fibroblast), HEK293 (human embryonic kidney) and A431 (human epidermoid carcinoma) cell lines, obtained from ATCC. Establishment of ABC transporter-expressing A431cell lines was achieved by retroviral transduction of the cells as described previously.
(§3) For cytotoxicity measurements the cells were seeded in a 96-well culture plate at 5,000 cells/well (A431, HEK293) or 6000 cells/well (HFF) and incubated overnight. […] After 72 hours of incubation viability was assessed by PrestoBlue® assay (Invitrogen). IC50 values were obtained by sigmoidal curve fitting in the GraphPad Prism software. All experiments were performed in triplicates and repeated at least in three independent experiments. DMSO, used as solvent of the compounds, had no effect on viability at the applied concentration.

Data set [5] relates to HEK293 cell line. Description: Cytotoxicity, PrestoBlue 72 h, HEK293. The format is cell-based, human. The settings on record: for Toxicity in HEK293 cell line, IC50: Non-toxic = not toxic up to 20 μM. How it is done: as §2, §3
In data set [6] the test system is parental A431 cell line. Nature of the data set: Cytotoxicity, PrestoBlue 72 h, parental A431. The format is cell-based, human. As to conditions: Non-toxic = not toxic up to 20 μM. How it is done: as §2, §3
Data set [7] concerns HFF, HEK293 and A431 cell lines. The format is cell-based, human. As to conditions: for Toxicity in mammalian cell lines (summary): human, 72 h. How it is done: as §2, §3
The target in data set [8] is T2, human ABCB1. Nature of the data set: Vanadate-sensitive ATPase activity assay in Sf9 membrane vesicles, ABCB1. On ABC transporter ATPase assay, ABCB1 (summary): key: 0: no observed effect; +: effect observed in the assay; In the ATPase assay showing only inhibition, the - sign is applied. The format is biochemical. Set-up: made in house; host or cells: Sf9 insect cells (baculovirus), membrane vesicles; ABCB1 ATPase Vmax: unit not given here. The settings on record: for ABC transporter ATPase assay, ABCB1 (summary): S6 summary table; for Effect on ABCB1-ATPase activity (in words): Sf9 membrane vesicles, 0.1–10 μM for the stimulation in b53; for ABCB1 ATPase, concentration at Vmax: concentration at which Vmax was seen; for ABCB1 ATPase Vmax: vanadate-sensitive ATPase, from dose-response curves, basal 5.7±0.7.

In data set [9] the target is T3, human ABCG2 (Homo sapiens, UniProt Q9UNQ0).
T3 sequence (Q9UNQ0 1-655): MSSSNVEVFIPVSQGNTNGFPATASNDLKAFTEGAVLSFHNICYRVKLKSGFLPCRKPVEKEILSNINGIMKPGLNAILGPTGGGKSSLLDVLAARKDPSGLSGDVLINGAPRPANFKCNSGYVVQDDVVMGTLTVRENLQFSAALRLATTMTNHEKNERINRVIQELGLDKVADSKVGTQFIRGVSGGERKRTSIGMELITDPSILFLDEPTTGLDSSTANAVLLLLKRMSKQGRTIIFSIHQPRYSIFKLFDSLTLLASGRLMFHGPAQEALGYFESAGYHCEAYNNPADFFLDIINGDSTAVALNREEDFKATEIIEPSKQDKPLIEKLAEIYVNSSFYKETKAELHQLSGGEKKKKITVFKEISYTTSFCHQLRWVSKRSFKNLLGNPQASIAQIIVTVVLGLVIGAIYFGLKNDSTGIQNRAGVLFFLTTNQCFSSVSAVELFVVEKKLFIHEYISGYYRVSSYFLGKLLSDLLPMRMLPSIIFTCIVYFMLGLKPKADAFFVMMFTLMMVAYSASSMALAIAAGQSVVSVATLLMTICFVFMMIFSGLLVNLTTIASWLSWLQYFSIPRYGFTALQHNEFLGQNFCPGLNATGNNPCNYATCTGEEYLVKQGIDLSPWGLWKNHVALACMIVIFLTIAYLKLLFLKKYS
Nature of the data set: Vanadate-sensitive ATPase activity assay in Sf9 membrane vesicles, ABCG2. The format is biochemical. Also on record: made in house; host or cells: Sf9 insect cells (baculovirus), membrane vesicles; ABCG2 ATPase, concentration at Vmax: unit not given here. As to conditions: for ABC transporter ATPase assay, ABCG2 (summary): S6 summary table; for Effect on ABCG2-ATPase activity (in words): Sf9 membrane vesicles, 0.1–10 μM for stimulation, 50 μM for inhibition; for ABCG2 ATPase, concentration at Vmax: concentration at which Vmax was seen; for ABCG2 ATPase Vmax: vanadate-sensitive ATPase, from dose-response curves, basal 22±1.4.

Data set [10] has as its target T3, human ABCG2. Description: Cellular transport assay, DCV or mitoxantrone uptake in ABCG2-overexpressing PLB cells. On ABC transporter transport assay, ABCG2 (summary): key: 0: no observed effect; +: effect observed in the assay; In the ATPase assay showing only inhibition, the - sign is applied. Also on record: expressed in transfected cells; host or cells: PLB (human lymphoblastoid) cells, lentiviral transduction. The format is cell-based. As to conditions: for ABC transporter transport assay, ABCG2 (summary): S6 summary table; for Effect on ABCG2 mediated transport (in words): PLB cells, compound 5 μM. How it is done:
as §1

The mark [11] stands for this setting: minimum concentration providing 90% growth inhibition, 20 to 0.04 μM, N.I. = no inhibition observed up to 20 μM.

By IC50 is commonly meant the concentration that gives 50% inhibition. As usually defined, the MIC90 is an inhibitory concentration at the 90% level, which refers to growth in some studies and to a panel of isolates in others.

SMILES strings stand for the structures. Values after ≈ are worked out from the molar mass of the structure shown. “Also recorded” adds a separate entry of the source.

T2 sequence (P08183 whole entry): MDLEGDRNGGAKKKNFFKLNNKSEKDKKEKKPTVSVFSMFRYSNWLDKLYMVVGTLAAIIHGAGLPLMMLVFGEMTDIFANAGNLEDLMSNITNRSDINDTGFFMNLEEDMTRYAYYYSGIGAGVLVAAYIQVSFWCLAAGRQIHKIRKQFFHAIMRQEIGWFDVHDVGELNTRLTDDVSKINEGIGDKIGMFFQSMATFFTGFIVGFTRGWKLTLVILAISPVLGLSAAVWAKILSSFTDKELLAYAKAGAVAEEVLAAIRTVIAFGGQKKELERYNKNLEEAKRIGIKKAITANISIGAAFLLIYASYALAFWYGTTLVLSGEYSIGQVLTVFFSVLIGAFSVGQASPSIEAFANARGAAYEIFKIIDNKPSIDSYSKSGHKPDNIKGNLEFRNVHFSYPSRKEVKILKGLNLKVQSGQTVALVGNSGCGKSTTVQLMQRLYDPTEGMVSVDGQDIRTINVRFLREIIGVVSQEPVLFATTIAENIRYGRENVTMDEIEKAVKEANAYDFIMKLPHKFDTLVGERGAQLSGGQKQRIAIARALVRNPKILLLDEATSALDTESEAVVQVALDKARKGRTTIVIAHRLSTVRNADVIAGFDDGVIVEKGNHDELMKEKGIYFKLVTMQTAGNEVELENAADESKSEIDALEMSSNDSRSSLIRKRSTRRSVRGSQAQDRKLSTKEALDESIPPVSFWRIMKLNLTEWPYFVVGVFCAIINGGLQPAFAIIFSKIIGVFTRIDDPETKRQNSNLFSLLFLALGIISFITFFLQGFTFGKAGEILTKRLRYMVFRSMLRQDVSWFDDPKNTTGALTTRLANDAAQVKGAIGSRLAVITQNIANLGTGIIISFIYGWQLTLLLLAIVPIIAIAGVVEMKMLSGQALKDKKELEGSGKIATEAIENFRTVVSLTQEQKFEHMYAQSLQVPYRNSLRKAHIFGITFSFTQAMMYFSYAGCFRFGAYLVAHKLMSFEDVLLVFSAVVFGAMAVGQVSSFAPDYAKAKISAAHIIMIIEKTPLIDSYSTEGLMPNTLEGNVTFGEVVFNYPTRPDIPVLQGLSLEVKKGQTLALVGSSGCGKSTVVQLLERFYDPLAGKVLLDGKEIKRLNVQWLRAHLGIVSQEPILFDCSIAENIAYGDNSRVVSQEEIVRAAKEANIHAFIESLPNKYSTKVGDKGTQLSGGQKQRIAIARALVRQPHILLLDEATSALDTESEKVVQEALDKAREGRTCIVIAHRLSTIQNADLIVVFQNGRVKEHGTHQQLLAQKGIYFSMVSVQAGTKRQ
T1 sequence (P9WG49 whole entry): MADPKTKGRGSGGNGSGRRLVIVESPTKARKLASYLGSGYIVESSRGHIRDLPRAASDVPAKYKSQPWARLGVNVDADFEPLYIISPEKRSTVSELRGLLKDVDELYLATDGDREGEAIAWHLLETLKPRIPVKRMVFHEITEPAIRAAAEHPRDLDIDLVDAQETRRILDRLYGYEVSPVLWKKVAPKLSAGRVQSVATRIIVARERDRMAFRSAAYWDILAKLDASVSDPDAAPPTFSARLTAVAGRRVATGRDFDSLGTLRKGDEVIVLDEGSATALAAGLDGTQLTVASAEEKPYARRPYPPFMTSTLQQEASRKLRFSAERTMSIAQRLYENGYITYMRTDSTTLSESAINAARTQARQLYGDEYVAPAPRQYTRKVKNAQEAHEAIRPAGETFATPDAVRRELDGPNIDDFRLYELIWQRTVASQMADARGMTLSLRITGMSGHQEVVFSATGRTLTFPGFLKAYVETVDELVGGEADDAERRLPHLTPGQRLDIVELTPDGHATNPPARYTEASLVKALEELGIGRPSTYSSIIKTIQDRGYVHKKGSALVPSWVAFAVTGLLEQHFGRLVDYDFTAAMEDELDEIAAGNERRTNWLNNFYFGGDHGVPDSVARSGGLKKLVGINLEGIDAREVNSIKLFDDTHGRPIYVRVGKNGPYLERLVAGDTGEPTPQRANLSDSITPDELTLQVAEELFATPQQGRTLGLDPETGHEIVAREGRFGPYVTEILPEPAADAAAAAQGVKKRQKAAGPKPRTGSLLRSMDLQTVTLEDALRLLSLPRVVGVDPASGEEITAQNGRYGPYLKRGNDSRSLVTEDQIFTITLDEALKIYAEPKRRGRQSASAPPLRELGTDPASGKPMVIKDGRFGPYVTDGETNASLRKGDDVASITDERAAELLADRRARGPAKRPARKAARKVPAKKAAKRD

For `Cc1ccc(-n2nc(C(C)(C)C)cc2Nc2nc3ccccc3nc2NCCCO)cc1` [VCC389777], the “Complete inhibition of MtTopoI” value in data set [1] lay within 7.5 to 10 µM. Further, the “Toxicity in H37Rv assay (summary)” value in data set [2] was determined as 0. In data set [2] (setting [11]), the “MIC90 of compounds in H37Rv growth test” value is on record as “N.I”. Besides, in data set [3], the “ABC transporter transport assay, ABCB1 (summary)” value is reported as “+”. For the same compound, the “Toxicity in HFF cell line, IC50” value in [4] is “Non-toxic”. Besides, the “Toxicity in HEK293 cell line, IC50” value in data set [5] was “Non-toxic”. In addition, in data set [6], the “Toxicity in parental A431 cell line, IC50” value was “Non-toxic”. In [7], the “Toxicity in human cell lines (in words)” value was “non-toxic” and the “Toxicity in mammalian cell lines (summary)” value is given as 0. For the same compound, in [8], the “ABC transporter ATPase assay, ABCB1 (summary)” value is on record as “+”; the “Effect on ABCB1-ATPase activity (in words)” value is “well measurable stimulatory effect”; the “ABCB1 ATPase, concentration at Vmax” value was 12.5 µM; the “ABCB1 ATPase Vmax” value was found to be 14.4±1.5. Also, in [8] (listed as VCC38977), the “Effect on ABCB1-ATPase activity (in words)” value was “slightly increased”. In addition, in data set [9], the “ABC transporter ATPase assay, ABCG2 (summary)” value was “+”; the “Effect on ABCG2-ATPase activity (in words)” value is “significantly stimulated; also recorded: slightly increased”; the “ABCG2 ATPase, concentration at Vmax” value was 0.4; the “ABCG2 ATPase Vmax” value turned out to be 32.0±3.6. Also, in data set [10], the “ABC transporter transport assay, ABCG2 (summary)” value is reported as “+”.

Take `CCc1c2c(nc3ccc(OC(=O)N4CCC(N5CCCCC5)CC4)cc13)-c1cc3c(c(=O)n1C2)COC(=O)[C@]3(O)CC` [Irinotecan, reference compound]: in data set [4], the “Toxicity in HFF cell line, IC50” value was “Non-toxic”. Further, the IC50 in data set [5] (Homo sapiens, HEK293, Non-toxic = not toxic up to 20 μM, read-out: Toxicity in HEK293 cell line, IC50) is 2.5 µM; in data set [6] (Homo sapiens, A-431, 72 h, read-out: Toxicity in parental A431 cell line, IC50), 8.6 µM.

Regarding `Brc1c2ccccc2c(Br)c2nc(-c3ccco3)c(-c3ccco3)nc12` [VCC450327], the “Complete inhibition of MtTopoI” value in data set [1] turned out to be 0.1 µM. Also, the “Toxicity in H37Rv assay (summary)” value in data set [2] was 0. Also, in [2] (setting [11]), the “MIC90 of compounds in H37Rv growth test” value is on record as “N.I”. In [3], the “Effect on ABCB1 mediated transport (in words)” value was “no effect” and the “ABC transporter transport assay, ABCB1 (summary)” value is 0. For the same compound, the “Toxicity in HFF cell line, IC50” value in data set [4] was “Non-toxic”. The “Toxicity in HEK293 cell line, IC50” value in [5] was “Non-toxic”. Further, the “Toxicity in parental A431 cell line, IC50” value in data set [6] is on record as “Non-toxic”. Further, in data set [7], the “Toxicity in human cell lines (in words)” value was “non-toxic” and the “Toxicity in mammalian cell lines (summary)” value is listed as 0. Further, in data set [8], the “ABCB1 ATPase, concentration at Vmax” value was determined as 0.19 µM and the “ABCB1 ATPase Vmax” value was found to be 9.6±1.3. In [9], the “ABCG2 ATPase, concentration at Vmax” value is listed as 0.4 and the “ABCG2 ATPase Vmax” value was 27.2±0.8. Also, in data set [10], the “Effect on ABCG2 mediated transport (in words)” value is “only moderately influence; also recorded: only a slight effect” and the “ABC transporter transport assay, ABCG2 (summary)” value is on record as “+”.

Turning to `Cc1ccc(C)c(SCc2nc3cc4ccccc4cc3nc2CSc2cc(C)ccc2C)c1` [VCC891909], in [1], the “Complete inhibition of MtTopoI” value is 7.5 to 10 µM. The MIC90 in data set [2] (Mycobacterium tuberculosis, H37RV, minimum concentration providing 90% growth inhibition, 20 to 0.04 μM, N.I. = no inhibition observed up to 20 μM, read-out: MIC90 of compounds in H37Rv growth test) came to 10.4 µM (≈ 5 µg/mL). Also, the “Toxicity in H37Rv assay (summary)” value in data set [2] is recorded as “+”. The “Growth inhibition of H37Rv mycobacteria (in words)” value in [2] (tested up to 20 μM) was “Mtb growth inhibitory effect”. Moreover, in data set [3], the “Effect on ABCB1 mediated transport (in words)” value was “no such transporter inhibitory effect” and the “ABC transporter transport assay, ABCB1 (summary)” value is given as 0. The “Toxicity in HFF cell line, IC50” value in data set [4] is recorded as “Non-toxic+”. The “Toxicity in HEK293 cell line, IC50” value in data set [5] is given as “Non-toxic”. The “Toxicity in parental A431 cell line, IC50” value in [6] was “Non-toxic”. Besides, in [7], the “Toxicity in mammalian cell lines (summary)” value is recorded as 0. In data set [8], the “ABC transporter ATPase assay, ABCB1 (summary)” value is 0; the “Effect on ABCB1-ATPase activity (in words)” value is listed as “no measurable effect”; the “ABCB1 ATPase, concentration at Vmax” value came to 3 µM; the “ABCB1 ATPase Vmax” value was 7.8±1.2. In data set [9], the “ABC transporter ATPase assay, ABCG2 (summary)” value came out at 0; the “Effect on ABCG2-ATPase activity (in words)” value is on record as “no measurable effect”; the “ABCG2 ATPase, concentration at Vmax” value turned out to be 0.01; the “ABCG2 ATPase Vmax” value came out at 25.3±5. In data set [10], the “Effect on ABCG2 mediated transport (in words)” value is “no such transporter inhibitory effect” and the “ABC transporter transport assay, ABCG2 (summary)” value turned out to be 0.

Regarding `O=c1c(O)c(-c2ccc(O)c(O)c2)oc2cc(O)cc(O)c12` [quercetin, reference compound], the “ABCG2 ATPase Vmax” value in data set [9] worked out at 38.5±1.
